# Measured values reported in patent publication US11180459B2, “Bacterial efflux pump inhibitors” (RUTGERS, THE STATE UNIVERSITY OF NEW JERSEY, priority 2017, dated 2021).
# Counter-ions that a name gives are not always drawn. Marks after values point to notes of the source that are not given here.
# Assays:
# [1] = test system: Escherichia coli ATCC 25922; assay: Standard EPI assay: clarithromycin MIC with EPI; format: cell-based; settings: clarithromycin as antibiotic; E. coli ATCC 25922; EPI at 6.25 (μg)
# Procedure: (§1) MIC assays were conducted in accordance with Clinical and Laboratory Standards Institute (CLSI) guidelines for broth microdilution.
# (§2) The EPI assay for the purposes of these studies represents a MIC assay in which the MIC of the antibiotic against the bacteria is tested in the presence of an experimental efflux pump inhibitor (EPI). The highest concentration of the EPI present in the assay typically is ½ of the intrinsic MIC of the compound. If the intrinsic MIC of the EPI is greater than 100 μg/mL, the EPI assay was tested with 50 μg/mL. Using serial dilutions of the EPI, its enhancement of antibiotic activity was then evaluated. The relative EPI activity was decided by comparing the MIC of the antibiotic in the presence of the EPI compound with the intrinsic MIC of the antibiotic alone. For the evaluation of the efficacy of an EPI against bacteria that were pre-exposed to an antibiotic, the inoculum of bacteria that used was developed from a bacterial culture isolated as a single colony following exposure at ½ the MIIC of the antibiotic (so as to induce efflux pump expression), was to be used in combination with the EPI.
# (§3) In our standard EPI assay, the MIC of the test antibiotic is determined in the absence and presence of sub-inhibitory concentrations of the EPI. Initially, the sub-inhibitory concentration used was ½×MIC of the EPI. […] The MIC of levofloxacin against P. aeruginosa ATCC 27853 in the absence of EPI is 1 μg/mL. […] Similar methodology was employed to examine the synergy with Escherichia coli ATCC 25922 in the presence of varied concentrations of these EPIs using clarithromycin as the antibiotic.
# [2] = test system: Pseudomonas aeruginosa ATCC 27853; assay: Standard EPI assay: levofloxacin MIC with EPI; format: cell-based; settings: P. aeruginosa ATCC 27853; for Enhanced Activity in P. aeruginosa (fold enhancement of antibiotic activity / EPI concentration): levofloxacin as antibiotic, EPI at 12.5 (μg)
# Procedure: as §1, §2, §3
# P. aeruginosa ATCC 27853 [3] = assay: Intrinsic MIC assay (broth microdilution); format: cell-based; settings: Pseudomonas aeruginosa
# Procedure: as §1
# The intrinsic MIC of the experimental EPIs was tested with the method described. The 2-fold serial dilution begins with 100 μg/mL of tested compound in the first column of the 96-well plates.
# [4] = test system: P. aeruginosa [ATCC 27853]; assay: Mouse septicemia model of infection; format: in vivo, Swiss Webster female mice; settings: Experiment #521, cefepime 10 mg/ml b.i.d.
# Procedure: A general method for the in vivo assessment of bacterial EPIs is complicated by the fact that that both the antibiotic and the EPI need to be present for synergy to be achieved. A general method was discovered that has proven to be effective in establishing the relative efficacy of bacterial EPIs in a mouse septicemia model. The bacterial EPI is administered initially intravenously to mice with septicemia, followed 5 minutes later by the intravenous administration or oral administration of the antibiotic. A second administration of the EPI is then administered subcutaneously after an additional 5 minutes to act as a booster, followed by the final administration of the antibiotic either intravenously or orally after the second administration of the EPI. […] In a few instances, a second regiment of both EPI and antibiotic as administered on day 1 was required after 24 hours to affect cures.
# Determination of the in vivo efficacy of bacterial efflux pump inhibitors (EPIs) can be efficiently determined using a mouse septicemia model of infection. The systemic infection is initiated by a 500 ul intraperitoneal injection of an inoculum containing bacteria (such as P. aeruginosa [ATCC 27853]) at a concentration of approximately 5×10^5 cells in 5% mucin in Swiss Webster female mice. […]
# P. aeruginosa ATCC 27853 [5] = assay: Pre-exposure bacterial EPI assay (MIC against bacteria pre-exposed to 1/2 x MIC antibiotic); format: cell-based; settings: Pseudomonas aeruginosa, ATCC27853, read-out: MIC of cefepime against P. aeruginosa pre-exposed to cefepime
# Text: The principle underlying this pre-exposure is that exposure of the bacteria to sub-inhibitory concentrations of the test antibiotic will induce expression of efflux pumps, if any, and may represent the scenario in vivo more accurately.
smiles,measurement,setting,value
"NCCC[C@H](N)CNC(=O)c1nc2cc(-c3ccc(F)cc3)cc(C(F)(F)F)c2[nH]1 [Example 3, (S)—N-(2,5-diaminopentyl)-5-(4-fluorophenyl)-7-(trifluoromethyl)-1H-benzo[d]imidazole-2-carboxamide Dihydrochloride]",Enhanced Activity in E. coli (fold enhancement of antibiotic activity / EPI concentration),[1],8×/6.25
same,MIC of levofloxacin in the presence of EPI,[2]; 6.25 μg/mL of Example 3,0.016 µg/mL
same,reduction of the MIC of levofloxacin relative to absence of EPI,[2]; 6.25 μg/mL of Example 3,64 fold
same,Enhanced Activity in P. aeruginosa (fold enhancement of antibiotic activity / EPI concentration),[2],64×/12.5
same,MIC,"P. aeruginosa ATCC 27853 [3]; ATCC27853, read-out: intrinsic MIC of the EPI",25 µg/mL
"NC[C@H]1CN[C@H](CNC(=O)c2nc3cc(-c4ccc(F)cc4)ccc3[nH]2)C1 [Example 22, N-(((2S,4S)-4-(aminomethyl)pyrrolidin-2-yl)methyl)-5-(4-fluorophenyl)-1H-benzo[d]imidazole-2-carboxamidedihydrochloride]",Enhanced Activity in E. coli (fold enhancement of antibiotic activity / EPI concentration),[1],2×/6.25
same,Enhanced Activity in P. aeruginosa (fold enhancement of antibiotic activity / EPI concentration),[2],32×/12.5
same,% Survival (72 hr) Antibiotic + EPI,[4]; 250 ul + Example 22 2.0 mg/ml b.i.d.,75%
"CO/N=C(\C(=O)N[C@@H]1C(=O)N2C(C(=O)[O-])=C(C[N+]3(C)CCCC3)CS[C@H]12)c1csc(N)n1 [cefepime, reference compound]",MIC,P. aeruginosa ATCC 27853 [5],16 µg/mL
same,% Survival (72 hr) Antibiotic Only,[4]; 250 ul,25%*****
"C[C@H]1COc2c(N3CCN(C)CC3)c(F)cc3c(=O)c(C(=O)O)cn1c23 [levofloxacin, reference compound]",MIC,"P. aeruginosa ATCC 27853 [3]; ATCC27853, P. aeruginosa ATCC 27853, read-out: MIC of levofloxacin in the absence of EPI",1 µg/mL
